pIC50: −log10 of the molar value. Like-named read-outs stand apart in the source and are kept apart here. Marks after values point to notes of the source that are not given here.
What was measured:
[1] = test system: P388/Adr; test: cells; format: cell-based, murine; details: Table 1C; for folds of resistance (IC50 ratio vs parent cell line): P388/Adr vs P388/O; for pIC50: XTT, 72 h, read-out: IC50
Procedure: (§1) The drug-resistant cell lines were continuously cultured in the presence of the selecting agent, AD, DX, VBL or VM to maintain the drug resistant phenotypes. […] All cells were cultured in RPMI 1640-10% FBS at 37° C. 5% CO2 (see below).
(§2) The cells were cultured at an initial density of 5×10^4 cells/mL. They were maintained in a 5% CO2-humidified atmosphere at 37° C. in RPMI-1640 medium (GIBCO-BRL, Gaithersburg, Md.) containing penicillin (100 U/mL), streptomycin ([…]) (GIBCO-BRL) and 10% heat inactivate fetal bovine serum. Culture for cell suspension (such as for CCRF-CEM, P388 and sublines), were performed by the XTT-microculture tetrazonium method (Scudiero, D. A. et al., Cancer Res. 1988, 48, 4827-4833) in duplicate in 96-well microtiter plates.
(§3) 2′,3′-Bis(methoxy-4-nitro-5-sufophenyl)-5-[(phenylamino)carbonyl]2H-tetrazolium hyudroxide (XTT) was prepared at 1 mg/mL in prewarmed (37° C.) medium without serum. Phenazine methosulfate (PMS) and fresh XTT were mixed together to obtain 0.025 mM PMS-XTT solution (25 μL of the stock 5 mM PMS was added per 5 mL of 1 mg/mL XTT). Following a 72 h incubation, 50 μL of the assay aliquots were added to each well of the cell culture. After incubation at 37° C. for 4 h, absorbance at 450 nm and 630 nm was measured with a microplate reader (EL340, Bio-Tek Instruments, Inc., Winooski, Vt.).

[2] = test system: DC-3F/ADX; test: cells; format: cell-based, hamster; details: for folds of resistance (IC50 ratio vs parent cell line): DC-3F/ADX vs DC-3F; for pIC50: read-out: IC50
Procedure: (§4) The DC-3F hamster lung fibroblast cell line and its actinomycin D-selected sublines (DC-3F/ADII and DC-3F/ADX) were obtained from the Memorial Sloan-Kettering Cancer Center (MSKCC).
as §1
(§5) The cytotoxicity of the drug toward the monolayer cell cultures (such as DC-3F, MCF-7, SK-N-As and sublines) was determined in 96-well microtiter plates by the SRB method as described by Skehan and co-workers (Skehan, P., et al., J. Natl. Cancer Inst. 1990, 82, 1107-1112) for measuring the cellular protein content. Cultures were fixed with trichloroacetic acid and then stained for 30 min with 0.4% suforhodamine B dissolved in 1% acetic acid. Unbound dye was removed by acetic acid washes, and the protein-bound dye was extracted with an unbuffered Tris base (tris(hydroxy-methyl)aminomethane) for determination of absorbance at 570 nm in a 96-well microtiter plate reader. The experiments were carried out in duplicate. Each run entailed six to seven concentrations of the tested drugs. Data were analyzed with the median-effect plot (Chou, T.-C. & Talalay, P. T. (1984) Adv. Enzyme Regul. 22, 27-55) using a previously described computer program (Chou, J., & Chou T.-C. 1987, Dose-effect analysis with microcomputers: Quantitation of ED50, synergism, antagonism, low-dose risk, reception-ligand binding and enzyme kinetics, IBM-PC software and manual, Biosoft, Cambridge, U.K.).
(§6) Concerning Table 3, experiments were carried out using the cell lines DC-3F (parent hamster lung cells), DC-3F/ADII (moderate multidrug-resistant (MDR) cells) and DC-3F/ADX (very strong MDR cells).

[3] = test system: MCF-7/Adr; test: cells; format: cell-based, human; details: Table 1C; for folds of resistance (IC50 ratio vs parent cell line): MCF-7/Adr vs MCF-7; for pIC50: SRB, 72 h, read-out: IC50
Procedure: Cultures were fixed with trichloroacetic acid and then stained for 30 min with 0.4% suforhodamine B dissolved in 1% acetic acid. Unbound dye was removed by acetic acid washes, and the protein-bound dye was extracted with an unbuffered Tris base (tris(hydroxy-methyl)aminomethane) for determination of absorbance at 570 nm in a 96-well microtiter plate reader. The experiments were carried out in duplicate. Each run entailed six to seven concentrations of the tested drugs.

[4] = test system: CCRF-CEM/VBL100; test: cells; format: cell-based, human; details: for (B)/(A) IC50 ratio: CCRF-CEM/VBL100 vs CCRF-CEM
Outline: (§7)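 Duplicate 72 h cultures at 5×10^4 cells/mL, 37 °C, 5% CO2; then XTT plus PMS for 4 h; dual-wavelength read at 450/630 nm. Resistant sublines held under their selecting agents.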

[5] = test system: CCRF-CEM/VM1; test: cells; format: cell-based, human; details: for (D)/(A) IC50 ratio: CCRF-CEM/VM1 vs CCRF-CEM
Outline: as §7

[6] = test system: CCRF-CEM/Taxol®; test: cells; format: cell-based, human; details: for pIC50: XTT, 72 h, read-out: IC50
Outline: as §7

[7] = test system: murine leukemic P388/0; test: XTT cytotoxicity, P388/0; format: cell-based; details: Table 1C; XTT, 72 h; read-out: IC50
Procedure: as §4, §1, §2, §3

[8] = test system: human neuroblastoma SK-N-As; test: SRB cytotoxicity, SK-N-As; format: cell-based; details: Table 1C; SRB, 72 h; read-out: IC50
Procedure: as §4, §1, §5

[9] = test system: CCRF-CEM human T-cell acute lymphoblastic leukemia cell line; test: XTT cytotoxicity (cell growth inhibition), CCRF-CEM
Outline: as §7

[10] = test system: SK-N-FI; test: cells; format: cell-based, human; details: Table 1C; for folds of resistance (IC50 ratio vs parent cell line): SK-N-FI vs SK-N-As; for pIC50: SRB, 72 h, read-out: IC50
Procedure: as §1, §5

[11] = test system: DC-3F/ADII; test: SRB cytotoxicity, DC-3F/ADII; format: cell-based, hamster; details: Table 3; read-out: IC50
Procedure: as §4, §1, §5, §6

[12] = test system: DC-3F hamster lung fibroblast cell line; test: SRB cytotoxicity, DC-3F; format: cell-based; details: read-out: IC50
Procedure: as §4, §1, §5

[13] = test system: MCF-7; test: SRB cytotoxicity, MCF-7; format: cell-based, human; details: Table 1C; SRB, 72 h; read-out: IC50
Procedure: as §5

[14] = Table 1A, XTT, 72 h, read-out: IC50
[15] = Table 2A, MDR cell line, read-out: IC50 (B)
[16] = Table 6, single determinations, read-out: IC50
[17] = Table 7, CEM/VBL, read-out: IC50
[18] = Table 2A, Topo II gene mutated cell line, read-out: IC50 (C)
[19] = read-out: IC50 (A), Table 2A, parent cell line

| SMILES | folds of resistance (IC50 ratio vs parent cell line) [1] | pIC50 [1] | folds of resistance (IC50 ratio vs parent cell line) ([2]; Table 1C) | pIC50 ([2]; Table 1C, SRB, 72 h) | folds of resistance (IC50 ratio vs parent cell line) [3] | pIC50 [3] | pIC50 ([4]; Table 1, XTT, read-out: IC50) | (B)/(A) IC50 ratio ([4]; Table 1A) | pIC50 [4, 14] | pIC50 [4, 15] | pIC50 [4, 17] | pIC50 ([4]; read-out: IC50) | pIC50 ([5]; Table 1, XTT, read-out: IC50) | (D)/(A) IC50 ratio ([5]; Table 1A) | pIC50 [5, 14] | pIC50 [5, 18] | pIC50 ([6]; Table 1A) | pIC50 [7] | pIC50 [8] | pIC50 [9] | further results |
| --- | --- | --- | --- | --- | --- | --- | --- | --- | --- | --- | --- | --- | --- | --- | --- | --- | --- | --- | --- | --- | --- |
| C/C(=C\c1csc(C)n1)[C@@H]1C/C=C\CCC[C@H](C)[C@H](O)[C@@H](C)C(=O)C(C)(C)[C@@H](O)CC(=O)O1 [Desoxyepothilone A, desoxyepothilone A] | (0.59x) | 7.90 | (3.9x) | 7.38 | (4.5x) | 6.84 | 7.92 | 0.55 | 7.92 | 7.92 | 7.92 | 7.92 | 7.89 | 0.59 | 7.89 | 7.89 | 7.82 | 7.67 | 7.14 | 7.66 | pIC50 ([2]; Table 3): 7.38; pIC50 ([4]; Table 2, CCRF-CEM/VLB, read-out: IC50): 7.92; (B)/(A) ratio (fold resistance >1, collateral sensitivity <1) ([4]; Table 2A): (0.55)^b; pIC50 [4, 16]: 7.92; pIC50 ([5]; Table 2, CCR-CEM/VM-1, read-out: IC50): 7.89; (C)/(A) ratio (fold resistance >1, collateral sensitivity <1) ([5]; Table 2A): (0.59)^b; pIC50 [5, 16]: 7.89; (C)/(A) IC50 ratio ([6]; Table 1A, CCRF-CEM/Taxol vs CCRF-CEM): 0.7; pIC50 ([9]; Table 1, XTT): 7.66; pIC50 ([9]; Table 1A, XTT, 72 h): 7.66; pIC50 ([9]; Table 2): 8.70; pIC50 ([9]; Table 6, single determinations): 7.66; pIC50 ([9]; Table 7, CEM): 7.66; pIC50 [9, 19]: 7.66; folds of resistance (IC50 ratio vs parent cell line) [10]: (3.1x); pIC50 [10]: 6.65; pIC50 [11]: 7.70; pIC50 ([12]; Table 1C, SRB, 72 h): 7.96; pIC50 ([12]; Table 3): 7.97; pIC50 [13]: 7.49 |
| C/C(=C\c1csc(C)n1)[C@@H]1C[C@@H]2O[C@@H]2CCC[C@H](C)[C@H](O)[C@@H](C)C(=O)C(C)(C)[C@@H](O)CC(=O)O1 [Epothilone A, epothilone A] | (5.3x)# | 9.00 | (14.5x)# | 7.28 | (3.1x)# | 8.03 | 7.70 | 7.4 | 7.70 | 7.62 | 7.69 | 7.70 | 8.52 | 2.3 | 8.21 | 8.47 | 8.43 | 8.74 | 7.92 | 8.57 | pIC50 ([2]; relative potency ordering): 7.22; (B)/(A) ratio (fold resistance >1, collateral sensitivity <1) [4]: (7.5)^a; fold resistance (cross-resistance) vs parent CCRF-CEM ([4]; CCRF-CEM/VBL100 MDR cells): 8 fold; (C)/(A) ratio (fold resistance >1, collateral sensitivity <1) [5]: (1.06)^a; (C)/(A) IC50 ratio [6]: 1.4; pIC50 ([9]; Table 1, XTT): 8.52; pIC50 ([9]; Table 7, CEM): 8.54; pIC50 [9, 19]: 8.49; folds of resistance (IC50 ratio vs parent cell line) [10]: (1.9x)#; pIC50 [10]: 7.64; pIC50 ([12]; Table 1C, SRB, 72 h): 8.43; pIC50 ([12]; relative potency ordering): 8.44; pIC50 [13]: 8.52 |

Reference: patent publication US6603023B2 (priority 1996, dated 2003)
